Measurements taken from patent US9802880B2, “Cannabigerol derivatives” (VIVACELL BIOTECHNOLOGY ESPAÑA S.L., priority 2014, dated 2017).

How the values were obtained:
PPARg [1] = test: PPARg transactivation assay in HEK-293 cells (GAL4-PPARγ / GAL4-luc); details: HEK-293 cells, 6 h treatment, FIG. 1
[2] = test system: COX-2, iNOS, TNFα and IL-6; test: 3NP model, inflammatory marker mRNAs in the striatum (real-time PCR); format: in vivo, C57BL/6 mice; details: 3NP-treated mice, 10 mg/kg, FIG. 10 and FIG. 11
Description: Gene expression of inflammatory markers including COX-2, TNFα, IL-6 and iNOS, was down regulated in 3NP+compound III (10 mg/kg) treated mice compared with 3NP+Vehicle mice. Expression levels were calculated using the 2^−ΔΔct method. Values are expressed as means±SEM for 6 animals per group.
Gene expression of inflammatory markers including COX-2, TNFα, IL-6 and iNOS, was down regulated in 3NP+XII (10 mg/kg) treated mice compared with 3NP+Vehicle mice. Expression levels were calculated using the 2^−ΔΔct method. Values are expressed as means±SEM for 6 animals per group.
Lesions of the striatum were induced with 3-NP in adult (16 week old; 30 g) male C57BL/6 mice (Harlan Ibérica, Barcelona, Spain). […] The right hemisphere was used to dissect the striatum, which was quickly frozen in RNAlater (Sigma-Aldrich, Germany) to analyzed inflammatory markers were by Real Time PCR. […] We evaluated the general locomotor activity, the hindlimb clasping and dystonia, and the truncal dystonia. […]
Total RNA was isolated from striata (3NP model) or spinal cord (EAE model) using RNeasy Lipid Tissue Mini Kit (Qiagen, GmbH). The total amount of RNA extracted was quantitated by spectrometry at 260 nm and its purity from the ratio between the absorbance values at 260 and 280 nm. […] Expression levels were calculated using the 2^−ΔΔct method.

PPARg [3] = test: PPARg transactivation assay in human dermal primary fibroblasts; format: cell-based; details: 6 h treatment, FIG. 2
Text: FIG. 2. PPARg Transactivation Assays in Human Dermal Primary Fibroblasts.

EAE mice = test: Experimental autoimmune encephalomyelitis (EAE), clinical score; format: in vivo, C57BL/6 mice
Description: C57BL/6 mice were immunized with MOG35-55 and their clinical score evaluated daily. Mice were treated daily with compound (III) (10 mg/kg) on day 6 post-immunization and the 21 following days. […] Values are expressed as means±SEM for 10 animals per group.
C57BL/6 mice were immunized with MOG35-55 and their clinical score evaluated daily. Mice were treated daily with compound (XII) (5 mg/kg) on day 6 post-immunization and the 21 following days. […] Values are expressed as means±SEM for 6 animals per group.
EAE was induced in female C57BL/6 mice at 6-8 weeks of age by subcutaneous immunization with myelin oligodendrocyte glycoprotein polypeptide (MOG35-55) (300 μg) and 200 μg of Mycobacterium tuberculosis (H37Ra Difco, Franklin Lakes, N.J., USA) in a 1:1 mix with […] Freund's adjuvant (CFA, Sigma-Aldrich, Madrid, Spain). On the same day and 2 days later, mice were injected intraperitoneally (ip) with 200 ng of pertussis toxin (Sigma-Aldrich, Madrid, Spain) in 0.1 ml PBS. […] Treatment started at day 6 post-immunization (p.i.) and consisted in daily injections of compounds III (FIG. 6) and XII (FIG. 8) at the indicated doses or of the vehicle alone (DMSO/PBS) for the following 21 days. The mice were examined daily for clinical signs of EAE and disease scores were measured as follows: 0, no disease; 1, limp tail; 2, limp tail and hind limb weakness; 3, hind limb paralysis; 4, hind limb and front limb paralysis; 5, moribund and death. All animals were sacrificed 28 days (p.i.) for further analysis. Once sacrificed, animals were dissected and their spinal cords were rapidly removed and quickly frozen in RNAlater (Sigma-Aldric, Germany).

CCCCCC1=C(NCC)C(=O)C(C/C=C(\C)CCC=C(C)C)=C(O)C1=O [Compound III, 6-(3,7-dimethyl-octa-2,6-dienyl)-5-hydroxy-3-pentyl-2-ethylamino-[1,4]benzoquinone]
PPARg activation (fold) compared with CBG-Q (PPARg [1]): higher efficiency than CBG-Q | up-regulation of pro-inflammatory markers COX-2, iNOS, TNFα and IL-6 in the striatum [2]: attenuated the up-regulation | PPARg activation (fold) compared with CBG-Q (PPARg [3]): higher efficiency than CBG-Q | clinical manifestations of EAE (EAE mice; 10 mg/kg daily from day 6 post-immunization for 21 days, FIG. 6): clearly attenuated | EAE clinical score throughout the experiment (day 6-day 28) (EAE mice; 10 mg/kg daily, score scale 0-5, vehicle-treated mice reached 2.5): < 1.3 | day on which the disease peaked (EAE mice; 10 mg/kg daily, vehicle-treated mice peaked by day 16): 17 day post-injection
